Where a name gives a salt, the structure may show the parent alone. A value given as a limit tells only on which side of the number the result lay.

EC50 data for 26 compounds are collected here from patent US9693997B2, “Antiviral compounds” (priority 2013, dated 2017).

The subject of experiment [1] is Pseudotyped HCV GT1b particles (HCVpp), entry into Huh7-high CD81 cells. Put plainly: microbe, parasite or virus in culture. The settings on record: Hepatitis C virus, GT1B, 72 h, read-out: HCVpp GT-1b (EC50, μM). Format: cell-based, HCV GT1b Con1 strain.
Experiment [2] concerns pseudotyped VSV G particles (VSVpp) in Huh7-high CD81 cells. As to the kind of experiment: microbe, parasite or virus in culture. Format: cell-based, vesicular stomatitis virus. Particulars: Vesicular stomatitis virus, 72 h, read-out: VSVpp (EC50, μM).

As for `CC(C)(C)NS(=O)(=O)c1cccc(-c2c(Cl)cc(Nc3n[nH]c(N)n3)cc2C(F)(F)F)c1` [Compound 176, 4′-(5-amino-1H-1,2,4-triazol-3-ylamino)-N-tert-butyl-2′-chloro-6′-(trifluoromethyl)biphenyl-3-sulfonamide], the values for the half-maximal effective concentration (EC50) in experiment [1] and in experiment [2] were 0.019 µM and 9.6 µM, respectively.

Turning to `COc1ccc(-c2c(Cl)cc(Nc3n[nH]c(N)n3)cc2C(F)(F)F)cc1S(=O)(=O)N1CCNCC1` [Compound 182, N3-(2-chloro-4′-methoxy-3′-(piperazin-1-ylsulfonyl)-6-(trifluoromethyl)biphenyl-4-yl)-1H-1,2,4-triazole-3,5-diamine hydrochloride], the values for the EC50 in experiment [1] and in experiment [2] were 0.044 µM and > 10 µM, respectively.

For the compound `Nc1nc(Nc2cc(Cl)c(-c3ccc(S(=O)(=O)N4CCC(F)(F)CC4)cc3)c(C(F)(F)F)c2)n[nH]1` [Compound 183, N3-(2-chloro-4′-(4,4-difluoropiperidin-1-ylsulfonyl)-6-(trifluoromethyl)biphenyl-4-yl)-1H-1,2,4-triazole-3,5-diamine], the half-maximal effective concentration (EC50) in experiment [1] amounted to 0.048 µM; in experiment [2], 8.19 µM.

For the compound `Nc1nc(Nc2cc(Cl)c(-c3ccc(S(=O)(=O)C4CC4)cc3)c(C(F)(F)F)c2)n[nH]1` [Compound 188, N3-(2-chloro-4′-(cyclopropylsulfonyl)-6-(trifluoromethyl)biphenyl-4-yl)-1H-1,2,4-triazole-3,5-diamine], the EC50 in experiment [1] came out at 0.089 µM; in experiment [2], 0.09 µM.

As for `CNC(=O)c1ccc(-c2c(Cl)cc(Nc3n[nH]c(N)n3)cc2C(F)(F)F)cc1` [Compound 189, 4′-(5-amino-1H-1,2,4-triazol-3-ylamino)-2′-chloro-N-methyl-6′-(trifluoromethyl)biphenyl-4-carboxamide], the EC50 in experiment [1] turned out to be 0.08 µM; in experiment [2], 36.8 µM.

Regarding `COc1ccc(-c2c(Cl)cc(Nc3n[nH]c(N)n3)cc2C(F)(F)F)cc1S(=O)(=O)N[C@H]1CC[C@H](O)CC1` [Compound 190, 4′-(5-amino-1H-1,2,4-triazol-3-ylamino)-2′-chloro-N-(trans-4-hydroxycyclohexyl)-4-methoxy-6′-(trifluoromethyl)biphenyl-3-sulfonamide], the EC50 is 0.046 µM in experiment [1] and 56.1 µM in experiment [2].

As to `Nc1nc(Nc2cc(Cl)c(-c3ccc(S(=O)(=O)N4CC(O)C4)cc3)c(C(F)(F)F)c2)n[nH]1` [Compound 191, 1-(4′-(5-amino-1H-1,2,4-triazol-3-ylamino)-2′-chloro-6′-(trifluoromethyl)biphenyl-4-ylsulfonyl)azetidin-3-ol], the values for the EC50 in experiment [1] and in experiment [2] were 0.069 µM and 25 µM, respectively.

For the compound `Nc1nc(Nc2cc(Cl)c(-c3cccc(S(=O)(=O)N4CCCC4)c3)c(C(F)(F)F)c2)n[nH]1` [Compound 192, N3-(2-chloro-3′-(pyrrolidin-1-ylsulfonyl)-6-(trifluoromethyl)biphenyl-4-yl)-1H-1,2,4-triazole-3,5-diamine], the values for the EC50 in experiment [1] and in experiment [2] were 0.084 µM and 17.2 µM, respectively.

Turning to `CC(C)(C)NS(=O)(=O)c1cc(-c2c(Cl)cc(Nc3n[nH]c(N)n3)cc2C(F)(F)F)ccc1OC(F)(F)F` [Compound 193, 4′-(5-amino-1H-1,2,4-triazol-3-ylamino)-N-tert-butyl-2′-chloro-4-(trifluoromethoxy)-6′-(trifluoromethyl)biphenyl-3-sulfonamide], the results for the EC50 in experiment [1] and in experiment [2] were 0.075 µM and 4.97 µM, respectively.

On to `Nc1nc(Nc2cc(Cl)c(-c3ccc(S(=O)(=O)N4CCC(O)CC4)cc3)c(C(F)(F)F)c2)n[nH]1` [Compound 194, 1-(4′-(5-amino-1H-1,2,4-triazol-3-ylamino)-2′-chloro-6′-(trifluoromethyl)biphenyl-4-ylsulfonyl)piperidin-4-ol], for which the figures for the EC50 in experiment [1] and in experiment [2] were 0.115 µM and 22.8 µM, respectively.

Take `CS(=O)(=O)c1cccc(-c2c(Cl)cc(Nc3n[nH]c(N)n3)cc2C(F)(F)F)c1` [Compound 195, N3-(2-chloro-3′-(methylsulfonyl)-6-(trifluoromethyl)biphenyl-4-yl)-1H-1,2,4-triazole-3,5-diamine]: the EC50 worked out at 0.212 µM in experiment [1] and 39.7 µM in experiment [2].

On to `CN(C(C)(C)C)S(=O)(=O)c1cccc(-c2c(Cl)cc(Nc3n[nH]c(N)n3)cc2C(F)(F)F)c1` [Compound 196, 4′-(5-amino-1H-1,2,4-triazol-3-ylamino)-N-tert-butyl-2′-chloro-N-methyl-6′-(trifluoromethyl)biphenyl-3-sulfonamide], for which the values for the EC50 in experiment [1] and in experiment [2] were 0.126 µM and > 10 µM, respectively.

`Nc1nc(Nc2cc(Cl)c(-c3cccc(S(N)(=O)=O)c3)c(C(F)(F)F)c2)n[nH]1` [Compound 197, 4′-(5-amino-1H-1,2,4-triazol-3-ylamino)-2′-chloro-6′-(trifluoromethyl)biphenyl-3-sulfonamide 2,2,2-trifluoroacetate]: the EC50 was 0.249 µM in experiment [1] and > 10 µM in experiment [2].

For the compound `CN(C)S(=O)(=O)c1cccc(-c2c(Cl)cc(Nc3n[nH]c(N)n3)cc2C(F)(F)F)c1` [Compound 198, 4′-(5-amino-1H-1,2,4-triazol-3-ylamino)-2′-chloro-N,N-dimethyl-6′-(trifluoromethyl)biphenyl-3-sulfonamide], the EC50 came to 0.268 µM in experiment [1] and 21.3 µM in experiment [2].

As for `CS(=O)(=O)NCc1cccc(-c2c(Cl)cc(Nc3n[nH]c(N)n3)cc2C(F)(F)F)c1` [Compound 199, N-((4′-(5-amino-1H-1,2,4-triazol-3-ylamino)-2′-chloro-6′-(trifluoromethyl)biphenyl-3-yl)methyl)methanesulfonamide], the EC50 in experiment [1] is 0.196 µM; in experiment [2] it was 31.8 µM.

As to `CC(C)(C)OC(=O)c1ccc(-c2c(Cl)cc(Nc3n[nH]c(N)n3)cc2C(F)(F)F)cc1` [Compound 200, tert-butyl 4′-(5-amino-1H-1,2,4-triazol-3-ylamino)-2′-chloro-6′-(trifluoromethyl)biphenyl-4-carboxylate], the concentration for a half-maximal effect (EC50) in experiment [1] was 0.574 µM; in experiment [2] it was > 10 µM.

`Nc1nc(Nc2cc(Cl)c(-c3ccccc3)c(C(F)(F)F)c2)n[nH]1` [Compound 201, N3-(2-chloro-6-(trifluoromethyl)biphenyl-4-yl)-1H-1,2,4-triazole-3,5-diamine 2,2,2-trifluoroacetate]: the EC50 was found to be 0.405 µM in experiment [1] and 58.3 µM in experiment [2].

Consider `Nc1nc(Nc2cc(Cl)c(-c3ccc(C(=O)O)cc3)c(C(F)(F)F)c2)n[nH]1` [Compound 202, 4′-(5-amino-1H-1,2,4-triazol-3-ylamino)-2′-chloro-6′-(trifluoromethyl)biphenyl-4-carboxylic acid 2,2,2-trifluoroacetate], for which the results for the EC50 in experiment [1] and in experiment [2] were 1.25 µM and > 10 µM, respectively.

For `COc1ccc(-c2c(Cl)cc(Nc3n[nH]c(N)n3)cc2C(F)(F)F)cc1S(=O)(=O)N1CCCC1` [Compound 203, N3-(2-chloro-4′-methoxy-3′-(pyrrolidin-1-ylsulfonyl)-6-(trifluoromethyl)biphenyl-4-yl)-1H-], the EC50 in experiment [1] came to 0.008 µM; in experiment [2], 10.6 µM.

Take `COc1ccc(-c2c(Cl)cc(Nc3n[nH]c(N)n3)cc2C(F)(F)F)cc1S(=O)(=O)NC1CCNCC1` [Compound 204, 4′-(5-amino-1H-1,2,4-triazol-3-ylamino)-2′-chloro-4-methoxy-N-(piperidin-4-yl)-6′-(trifluoromethyl)biphenyl-3-sulfonamide hydrochloride]: the EC50 in experiment [1] was 0.011 µM; in experiment [2], > 10 µM.

In the case of `CC1(NS(=O)(=O)c2ccc(-c3c(Cl)cc(Nc4n[nH]c(N)n4)cc3C(F)(F)F)cc2)CN(C(=O)OC(C)(C)C)C1` [Compound 205, tert-butyl 3-(4′-(5-amino-1H-1,2,4-triazol-3-ylamino)-2′-chloro-6′-(trifluoromethyl)biphenyl-4-ylsulfonamido)-3-methylazetidine-1-carboxylate], the EC50 in experiment [1] is 0.011 µM; in experiment [2], 9.26 µM.

Regarding `CC1(NS(=O)(=O)c2ccc(-c3c(Cl)cc(Nc4n[nH]c(N)n4)cc3C(F)(F)F)cc2)CC1` [Compound 206, 4′-(5-amino-1H-1,2,4-triazol-3-ylamino)-2′-chloro-N-(1-methylcyclopropyl)-6′-(trifluoromethyl)biphenyl-4-sulfonamide], the figures for the half-maximal effective concentration (EC50) in experiment [1] and in experiment [2] were 0.017 µM and 9.62 µM, respectively.

On to `CC1(NS(=O)(=O)c2ccc(-c3c(Cl)cc(Nc4n[nH]c(N)n4)cc3C(F)(F)F)cc2)CNC1` [Compound 207, 4′-(5-amino-1H-1,2,4-triazol-3-ylamino)-2′-chloro-N-(3-methylazetidin-3-yl)-6′-(trifluoromethyl)biphenyl-4-sulfonamide hydrochloride], for which the EC50 in experiment [1] was 0.029 µM; in experiment [2], > 10 µM.

`CC(C)(C)OC(=O)N1CCN(S(=O)(=O)c2ccc(-c3c(Cl)cc(Nc4n[nH]c(N)n4)cc3C(F)(F)F)cc2)C2(CC2)C1` [Compound 208, tert-butyl 4-(4′-(5-amino-1H-1,2,4-triazol-3-ylamino)-2′-chloro-6′-(trifluoromethyl)biphenyl-4-ylsulfonyl)-4,7-diazaspiro[2.5]octane-7-carboxylate]: the values for the EC50 in experiment [1] and in experiment [2] were 0.049 µM and > 10 µM, respectively.

On to `CN(CCNS(=O)(=O)c1ccc(-c2c(Cl)cc(Nc3n[nH]c(N)n3)cc2C(F)(F)F)cc1)C(=O)OC(C)(C)C` [Compound 209, tert-butyl 2-(4′-(5-amino-1H-1,2,4-triazol-3-ylamino)-2′-chloro-6′-(trifluoromethyl)biphenyl-4-ylsulfonamido)ethyl(methyl)carbamate], for which the figures for the EC50 in experiment [1] and in experiment [2] were 0.005 µM and 7.09 µM, respectively.

Regarding `CC(C)N1CC(C)(NS(=O)(=O)c2ccc(-c3c(Cl)cc(Nc4n[nH]c(N)n4)cc3C(F)(F)F)cc2)C1` [Compound 210, 4′-(5-amino-1H-1,2,4-triazol-3-ylamino)-2′-chloro-N-(1-isopropyl-3-methylazetidin-3-yl)-6′-(trifluoromethyl)biphenyl-4-sulfonamide hydrochloride], the results for the EC50 in experiment [1] and in experiment [2] were 0.021 µM and 4.41 µM, respectively.

For orientation: EC50 means the concentration at which the effect is half-maximal.
